molecular target: T1, Corticotropin-releasing factor receptor 1 (Homo sapiens, UniProt P34998); assay: Binding affinity to recombinant human Corticotropin releasing factor receptor 1 (hCRF1) expressed in 293EBNA cells; type: cell-based
T1 sequence (P34998 whole entry): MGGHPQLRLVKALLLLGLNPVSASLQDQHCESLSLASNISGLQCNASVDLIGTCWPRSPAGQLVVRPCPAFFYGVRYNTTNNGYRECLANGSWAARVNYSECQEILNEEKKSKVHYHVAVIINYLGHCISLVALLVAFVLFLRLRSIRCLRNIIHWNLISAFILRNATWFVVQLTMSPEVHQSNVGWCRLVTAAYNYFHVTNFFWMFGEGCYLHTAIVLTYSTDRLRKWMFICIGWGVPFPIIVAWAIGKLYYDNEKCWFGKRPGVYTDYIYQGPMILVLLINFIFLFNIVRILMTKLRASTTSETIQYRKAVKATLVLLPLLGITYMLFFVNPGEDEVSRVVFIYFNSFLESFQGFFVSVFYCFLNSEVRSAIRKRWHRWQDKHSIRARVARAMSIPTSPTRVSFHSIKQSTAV

| Ki [nM] | SMILES |
| --- | --- |
| 7.1 | COCC(COC)Oc1nc(C)nc2c1nnn2-c1ccc(C(C)C)cc1Br |
| 5.9 | COCCN(CCOC)c1nc(C)nc2c1ncn2-c1ccc(C(C)C)cc1Br |
| 6.7 | COCCN(CCOC)c1nc(C)nc2c1nc(C)n2-c1ccc(C(C)C)cc1Br |
| 33.2 | COCCN(CCOC)c1nc(C)nc2c1nnn2-c1ccc(OC(F)(F)F)cc1Br |
| 20.7 | COCCN(CCOC)c1nc(C)nc2c1ncn2-c1c(C)cc(C)cc1C |
| 6.1 | CCCCN(CCCC)c1nc(C)nc2c1ncn2-c1ccc(C(C)C)cc1Br |
| 291 | COCCCNc1nc(C)nc2c1nnn2-c1ccc(C(C)C)cc1Br |
| 2.2 | CCCCN(CC)c1cc(C)nc2c1nnn2-c1ccc(C(C)C)cc1SC |
| 66.9 | COCCCN(CCOC)c1nc(C)nc2c1nnn2-c1ccc(C(C)C)cc1Br |
| 1.9 | CCC(CC)Oc1nc(C)nc2c1nnn2-c1ccc(C(C)C)cc1Br |
| 7.1 | CCCC(C)Nc1nc(C)nc2c1nnn2-c1c(C)cc(C)cc1C (stereo not given) |
| 38.7 | CCCC(CN(C)C)Nc1nc(C)nc2c1nnn2-c1ccc(C(C)C)cc1Br (stereo not given) |
| 3.6 | CCCC(CCC)Nc1nc(C)nc2c1ncn2-c1ccc(C(C)C)cc1Br |
| 19.4 | CCC(Nc1nc(C)nc2c1nnn2-c1ccc(C(C)C)cc1Br)C(=O)OC (stereo not given) |
| 27.7 | COCC(Cc1ccccc1)Nc1nc(C)nc2c1nnn2-c1c(C)cc(C)cc1C (stereo not given) |
| 10.5 | CCN(CCOC)c1nc(C)nc2c1nnn2-c1ccc(C(C)C)cc1Br |
| 4.7 | COCCN(CCOC)c1cc(C)nc2c1nnn2-c1ccc(C(C)C)cc1Br |
| 31.3 | COCCN(CCOC)c1nc(C)nc2c1ncn2-c1c(Br)cc(OC)cc1OC |
| 24.1 | COCCN(CCOC)c1nc(C)nc2c1nnn2-c1c(C)cc(C)cc1C |
| 5.2 | CCC(CC)Nc1nc(C)nc2c1nnn2-c1ccc(C(C)C)cc1Br |
| 194 | Cc1nc(N2CCCC2)c2nnn(-c3ccc(C(C)C)cc3Br)c2n1 |
| 242 | COCCNc1nc(C)nc2c1nnn2-c1ccc(C(C)C)cc1Br |
| 10.5 | COCCN(CCOC)c1nc(C)nc2c1nnn2-c1ccc(N(C)C)cc1Br |

| Ki [nM] | SMILES |
| --- | --- |
| 28.3 | COCCN(CCOC)c1nc(C)nc2c1nnn2-c1c(Br)cc(OC)cc1OC |
| 3.1 | CCCCC(CC)Nc1nc(C)nc2c1nnn2-c1ccc(C(C)C)cc1Br (stereo not given) |
| 7.6 | CCCCC(CC)Nc1nc(C)nc2c1nnn2-c1c(C)cc(C)cc1C (stereo not given) |
| 22 | CCCCc1nc2c(N(CC)CCCC)nc(C)nc2n1-c1c(Cl)cc(OC)cc1OC |
| 5.1 | CCCCC(CC)Nc1nc(C)nc2c1ncn2-c1ccc(C(C)C)cc1Br (stereo not given) |
| 4.3 | CCCCN(CC)c1nc(C)nc2c1ncn2-c1ccc(C(C)C)cc1Br |
| 4.7 | COCCN(CCOC)c1cc(C)nc2c1nnn2-c1ccc(C(C)C)cc1SC |
| 9.2 | CCN(CCOC)c1nc(C)nc2c1ncn2-c1ccc(C(C)C)cc1Br |
| 235 | CCCC(Nc1nc(C)nc2c1nnn2-c1ccc(C(C)C)cc1Br)C(=O)N(C)C (stereo not given) |
| 201 | Cc1cc(C)c(-n2c(C)c(C)c3c(N4CCOCC4)nc(C)nc32)c(C)c1 |
| 210 | COCCNc1nc(C)nc2c1ncn2-c1ccc(C(C)C)cc1Br |
| 25.3 | CCN(CC)c1nc(C)nc2c1nnn2-c1ccc(C(C)C)cc1Br |
| 3.5 | CCCCN(CC)c1nc(C)nc2c1ncn2-c1c(Br)cc(OC)cc1OC |
| 4.6 | COCCN(CC1CC1)c1nc(C)nc2c1nnn2-c1ccc(C(C)C)cc1Br |
| 203 | COCCN(CCOC)c1ncnc2c1nnn2-c1ccc(C(C)C)cc1Br |
| 4 | CCCC(CCC)Nc1nc(C)nc2c1nnn2-c1c(C)cc(C)cc1C |
| 5.2 | CCCCN(CC)c1nc(C)nc2c1ncn2-c1c(Cl)cc(OC)cc1OC |
| 3.5 | CCCCN(CC)c1nc(C)nc2c1nc(C)n2-c1c(Cl)cc(OC)cc1OC |
| 120 | Cc1nc(NC2CCCC2)c2nnn(-c3ccc(C(C)C)cc3Br)c2n1 |
| 64 | COCCN(CCO)c1nc(C)nc2c1nnn2-c1ccc(C(C)C)cc1Br |
| 3.5 | CCC(CC)Oc1nc(C)nc2c1ncn2-c1ccc(C(C)C)cc1Br |
| 3 | CCCCN(CC)c1nc(C)nc2c1nnn2-c1c(Br)cc(OC)cc1OC |

Source: ChEMBL document CHEMBL1132598, “Synthesis, corticotropin-releasing factor receptor binding affinity, and pharmacokinetic properties of triazolo-, imidazo-, and pyrrolopyrimidines and -pyridines” (J Med Chem, 1999)
